Assay [1] relates to RAW264.7. Put plainly: Inhibition of LPS-induced NO production in mouse RAW264.7 cells compound preincubated for 1 hr before LPS treatment by Griess reaction. It counts as functional, cell-based.
The subject of assay [2] is J774.A1. Description: Inhibition of LPS-induced NO production in mouse J774A1 cells compound preincubated for 1 hr before LPS treatment by Griess reaction. It is filed as functional, cell-based. Background: Nitrite, measured by Griess reagent, commonly stands in for NO production.
Assay [3] has as its system RAW264.7. Put plainly: Cytotoxicity mouse RAW264.7 cells assessed as cell viability by MTT assay relative to control. It counts as cell-based. In general terms: Tetrazolium dyes change colour on reduction, which living cells bring about.
Assay [4] in a line: Cytotoxicity against mouse J774A1 cells assessed as cell viability by MTT assay relative to control. It counts as cell-based. To be noted: J774.A1.
Assay [5] relates to RAW264.7. Description: Inhibition of LPS-induced TNF-alpha release in mouse RAW264.7 cells compound preincubated at 20 ug/ml for 1 hr before LPS treatment measured after 6 to 12 hrs by sandwich immunoassay. It is filed as functional.
In assay [6] the test system is J774.A1. Description: Inhibition of LPS-induced TNF-alpha release in mouse J774A1 cells compound preincubated at 20 ug/ml for 1 hr before LPS treatment measured after 6 to 12 hrs by sandwich immunoassay. It counts as functional.
Assay [7] deals with RAW264.7. Description: Inhibition of LPS-induced IL1-beta release in mouse RAW264.7 cells compound preincubated at 20 ug/ml for 1 hr before LPS treatment measured after 6 to 12 hrs by sandwich immunoassay. It is filed as functional.
For assay [8], the system named is J774.A1. Put plainly: Inhibition of LPS-induced IL1-beta release in mouse J774A1 cells compound preincubated at 20 ug/ml for 1 hr before LPS treatment measured after 6 to 12 hrs by sandwich immunoassay. It is filed as functional.
Assay [9] has as its system RAW264.7. Description: Inhibition of LPS-induced TNF-alpha release in mouse RAW264.7 cells compound preincubated for 1 hr before LPS treatment measured after 6 to 12 hrs by sandwich immunoassay. It counts as functional, cell-based.
In assay [10] the test system is J774.A1. Description: Inhibition of LPS-induced TNF-alpha release in mouse J774A1 cells compound preincubated for 1 hr before LPS treatment measured after 6 to 12 hrs by sandwich immunoassay. It is filed as functional, cell-based.
For assay [11], the system named is RAW264.7. Put plainly: Inhibition of LPS-induced IL1-beta release in mouse RAW264.7 cells compound preincubated for 1 hr before LPS treatment measured after 6 to 12 hrs by sandwich immunoassay. It is filed as functional, cell-based.
The test system of assay [12] is J774.A1. Description: Inhibition of LPS-induced IL1-beta release in mouse J774A1 cells compound preincubated for 1 hr before LPS treatment measured after 6 to 12 hrs by sandwich immunoassay. It counts as functional, cell-based.

In ChEMBL document CHEMBL3352652, “Oleanolic acid analogs as NO, TNF-α and IL-1β inhibitors: synthesis, biological evaluation and docking studies” (Bioorg Med Chem Lett, 2014) one finds IC50 and inhibition data, which are given here for 17 compounds.

≈ marks a conversion by molar mass, not a printed value.

What is called IC50 is the midpoint of a concentration-inhibition curve. Take `COC(=O)[C@]12CCC(C)(C)C[C@H]1C1=CC[C@@H]3[C@@]4(C)CCC(=O)C(C)(C)[C@@H]4CC[C@@]3(C)[C@]1(C)CC2`: the IC50 with RAW264.7 [1] was 31.7 µM; with J774.A1 [2], 33.5 µM; with RAW264.7 [3], 79.3 µM; in assay [4], 82.5 µM.
Regarding `CC1(C)CC[C@]2(C(=O)O)CC[C@]3(C)C(=CC[C@@H]4[C@@]5(C)CC/C(=N\O)C(C)(C)[C@@H]5CC[C@]43C)[C@@H]2C1`, the IC50 came to 39.2 µM in the assay on RAW264.7 [1], 41.3 µM with J774.A1 [2], 82.4 µM in the assay with RAW264.7 [3] and 85.5 µM in [4].
For the compound `CC1(C)CC[C@]2(C(=O)Cl)CC[C@]3(C)C(=CC[C@@H]4[C@@]5(C)Cc6c([nH]c7ccccc67)C(C)(C)[C@@H]5CC[C@]43C)[C@@H]2C1`, the IC50 came to 22.8 µM in the assay on RAW264.7 [1], 24.9 µM in the assay with J774.A1 [2], 86.2 µM in the assay with RAW264.7 [3] and 89.3 µM in [4].
Usually inhibition stands for the relative decrease from the control value, in per cent. `CC1(C)CC[C@]2(C(=O)NN)CC[C@]3(C)C(=CC[C@@H]4[C@@]5(C)Cc6c([nH]c7ccccc67)C(C)(C)[C@@H]5CC[C@]43C)[C@@H]2C1`: the IC50 in the assay with RAW264.7 [1] came out at 16.5 µM; in the assay on J774.A1 [2], 17.7 µM; in the assay with RAW264.7 [3], 92.4 µM; in [4], 91 µM. The inhibition at 20 µg/mL with RAW264.7 [5] was 31.2%; in the assay on J774.A1 [6], 27.9%; with RAW264.7 [7], 13.9%; with J774.A1 [8] it was 11.1%.
`CNC(=O)[C@]12CCC(C)(C)C[C@H]1C1=CC[C@@H]3[C@@]4(C)Cc5c([nH]c6ccccc56)C(C)(C)[C@@H]4CC[C@@]3(C)[C@]1(C)CC2`: the IC50 in the assay on RAW264.7 [1] worked out at 4.75 µM; in the assay with J774.A1 [2], 15.9 µM; with RAW264.7 [3], 90.3 µM; in assay [4], 91.7 µM. Besides, the inhibition at 20 µg/mL in the assay on RAW264.7 [5] was determined as 43.7%; with J774.A1 [6] it was 40.3%; with RAW264.7 [7], 13.3%; with J774.A1 [8] it was 11.8%.
Turning to `CC1(C)CC[C@]2(C(=O)NC3CCCCC3)CC[C@]3(C)C(=CC[C@@H]4[C@@]5(C)Cc6c([nH]c7ccccc67)C(C)(C)[C@@H]5CC[C@]43C)[C@@H]2C1`, the IC50 in the assay on RAW264.7 [1] was determined as 2.66 µM; in the assay with J774.A1 [2], 10.8 µM; in the assay on RAW264.7 [3], 96.4 µM; in [4] it was 97.3 µM. Besides, the inhibition at 20 µg/mL came out at 47.8% in the assay with RAW264.7 [5], 51.9% in the assay on J774.A1 [6], 37.5% with RAW264.7 [7] and 31.7% in the assay with J774.A1 [8].
Regarding `CC1(C)CC[C@]2(C(=O)NCc3ccccc3)CC[C@]3(C)C(=CC[C@@H]4[C@@]5(C)Cc6c([nH]c7ccccc67)C(C)(C)[C@@H]5CC[C@]43C)[C@@H]2C1`, the half-maximal inhibitory concentration (IC50) is 24.1 µM with RAW264.7 [1], 18.4 µM in the assay with J774.A1 [2], 93.5 µM with RAW264.7 [3] and 93.5 µM in [4].
Take `Cc1ccc(C)c(NC(=O)[C@]23CCC(C)(C)C[C@H]2C2=CC[C@@H]4[C@@]5(C)Cc6c([nH]c7ccccc67)C(C)(C)[C@@H]5CC[C@@]4(C)[C@]2(C)CC3)c1`: the IC50 in the assay on RAW264.7 [1] is 23.2 µM; in the assay on J774.A1 [2], 29.4 µM; with RAW264.7 [3] it was 83.2 µM; in [4], 84.7 µM.
Take `Cc1ccc(NC(=O)[C@]23CCC(C)(C)C[C@H]2C2=CC[C@@H]4[C@@]5(C)Cc6c([nH]c7ccccc67)C(C)(C)[C@@H]5CC[C@@]4(C)[C@]2(C)CC3)cc1`: the IC50 with RAW264.7 [1] stood at 22.6 µM; in the assay on J774.A1 [2], 26.1 µM; in the assay on RAW264.7 [3], 80.4 µM; in [4], 83.5 µM.
For the compound `CC1(C)CC[C@]2(C(=O)Nc3ccc(Br)cc3)CC[C@]3(C)C(=CC[C@@H]4[C@@]5(C)Cc6c([nH]c7ccccc67)C(C)(C)[C@@H]5CC[C@]43C)[C@@H]2C1`, the IC50 in the assay with RAW264.7 [1] was determined as 25.4 µM; in the assay on J774.A1 [2] it was 27.4 µM; in the assay with RAW264.7 [3], 85.3 µM; in assay [4], 87 µM.
With `CC1(C)CC[C@]2(C(=O)O)CC[C@]3(C)C(=CC[C@@H]4[C@@]5(C)Cc6c([nH]c7ccccc67)C(C)(C)[C@@H]5CC[C@]43C)[C@@H]2C1`, the IC50 came to 18.8 µM with RAW264.7 [1], 21 µM in the assay on J774.A1 [2], 80.2 µM in the assay with RAW264.7 [3] and 83.7 µM in assay [4].
Take `CC(=O)O[C@H]1CC[C@]2(C)[C@H]3CC=C4[C@@H]5CC(C)(C)CC[C@]5(C(=O)O)CC[C@@]4(C)[C@]3(C)CC[C@H]2C1(C)C` [ACETYL OLEANOLIC ACID]: the IC50 amounted to 13.8 µM in the assay with RAW264.7 [1], 16.8 µM in the assay on J774.A1 [2], 79.2 µM in the assay with RAW264.7 [3] and 80.3 µM in assay [4]. Also, the inhibition at 20 µg/mL was 38.7% in the assay on RAW264.7 [5], 33.1% with J774.A1 [6], 22.8% in the assay on RAW264.7 [7] and 21.1% in the assay with J774.A1 [8].
As to `COc1cc(/C=C/C(=O)CC(=O)/C=C/c2ccc(O)c(OC)c2)ccc1O` [CURCUMIN], the IC50 in the assay on J774.A1 [2] was 18.5 µM; with RAW264.7 [9], 1.25 µg/mL (≈ 3.39 µM); in the assay with J774.A1 [10], 2.08 µg/mL (≈ 5.65 µM); with RAW264.7 [11] it was 6.44 µg/mL (≈ 17.5 µM); with J774.A1 [12], 24.8 µg/mL (≈ 67.4 µM).
Regarding `C[C@@H]1C[C@H]2[C@@H]3CCC4=CC(=O)C=C[C@]4(C)[C@@]3(F)[C@@H](O)C[C@]2(C)[C@@]1(O)C(=O)CO` [DEXAMETHASONE], the IC50 was 0.016 µg/mL (≈ 0.0408 µM) with RAW264.7 [9], 0.165 µg/mL (≈ 0.42 µM) with J774.A1 [10], 1.84 µg/mL (≈ 4.69 µM) in the assay on RAW264.7 [11] and 9.09 µg/mL (≈ 23.2 µM) in the assay with J774.A1 [12].
`COC(=O)[C@@H](N)CCCNC(=N)N[N+](=O)[O-]` [L-NAME] came in with an IC50 in the assay with J774.A1 [2] of 73.2 µM.
`CC1(C)CC[C@]2(C(=O)O)CC[C@]3(C)C(=CC[C@@H]4[C@@]5(C)CC[C@H](O)C(C)(C)[C@@H]5CC[C@]43C)[C@@H]2C1` [OLEANOLIC_ACID]: the IC50 worked out at 41.7 µM in the assay with RAW264.7 [1], 35.2 µM with J774.A1 [2], 89.1 µM in the assay with RAW264.7 [3] and 87.2 µM in assay [4].
As to `CC1(C)CC[C@]2(C(=O)O)CC[C@]3(C)C(=CC[C@@H]4[C@@]5(C)CCC(=O)C(C)(C)[C@@H]5CC[C@]43C)[C@@H]2C1` [OLEANONIC ACID], the IC50 in the assay with RAW264.7 [1] is 38.5 µM; in the assay with J774.A1 [2], 38.8 µM; in the assay with RAW264.7 [3] it was 89.6 µM; in assay [4], 87.7 µM.
